From patent US7999132B2, “Anthranilic acid derivative or salt thereof” (Toyama Chemical Co., Ltd., priority 2004, dated 2011)
Where a name gives a salt, the structure may show the parent alone.

Tested on: MMP-13
Experiment: MMP-13 Production Inhibition Test
Format: cell-based, human
Settings: Homo sapiens; 30 μmol/L; SW1353 cells stimulated with IL-1β 10 ng/mL; MMP-13 in culture supernatant by ELISA 16 hours after stimulation; read-out: Inhibition rate (%) at 30 μmol/L
Protocol: MMP-13 Production Inhibition Test
6.8×10^3 human cartilage derived cell line SW1353 cells were suspended in 100 μL of Dulbecco modified Eagle's medium supplemented with 10% fetal calf serum, plated on 96-well plates and cultured for 3 days. After the culture medium was changed to Dulbecco modified Eagle's medium containing 0.2% lactalbumin hydrolysate and the cells were cultured for 6 hours, […] were added and then IL-1β was added to obtain the final concentration of 10 ng/mL 1 hour later. 16 hours after the stimulation, supernatant was collected and the amount of MMP-13 in the culture supernatant was determined with an ELISA kit (Amersham). The inhibition rate was calculated from the amount of MMP-13 in the presence of a test compound assuming that the amount of MMP-13 was 100% in the absence of the test compound.

SMILES: O=C(Nc1cc(Oc2ccccc2)ccc1C(=O)O)c1ccc(N2CCOCC2)nc1 [Example 330, 2-(6-Morpholinopyridine-3-carboxamido)-4-phenoxybenzoic acid]
- inhibition at 30 µM: 68%

SMILES: O=C(Nc1cc(-c2ccccc2)ccc1C(=O)O)c1cc(-c2ccccc2)ncn1 [Example 349, 4-Phenyl-2-(6-phenylpyrimidine-4-carboxamido)benzoic acid]
- inhibition at 30 µM: 95%

SMILES: O=C(/C=C/c1cccc(Cl)c1)Nc1cc(-c2ccccc2)ccc1C(=O)O [Example 358, 2-((E)-3-(3-Chlorophenyl)acrylamido)-4-phenylbenzoic acid]
- inhibition at 30 µM: 99%

SMILES: O=C(/C=C/c1ccc(Cl)c(Cl)c1)Nc1cc(Oc2ccccc2)ccc1C(=O)O [Example 382, 2-((E)-3-(3,4-Dichlorophenyl)acrylamido)-4-phenoxybenzoic acid]
- inhibition at 30 µM: 98%

SMILES: O=C(Nc1cc(-c2ccccc2)ccc1C(=O)O)c1ccc(O)cc1 [Example 399, 2-(4-Hydroxybenzamido)-4-phenylbenzoic acid]
- inhibition at 30 µM: 79%

SMILES: COc1ccc(-c2ccc(C(=O)O)c(NC(=O)c3ccccc3)c2)cc1OC [Example 411, 2-(Benzamido)-4-(3,4-dimethoxyphenyl)benzoic acid]
- inhibition at 30 µM: 81%

SMILES: O=C(Nc1cc(-n2cnc3ccccc32)ccc1C(=O)O)c1ccccc1 [Example 415, 2-(benzamido)-4-(1H-benzimidazol-1-yl)benzoic acid hydrochloride]
- inhibition at 30 µM: 97%

SMILES: COc1ccc(-c2ccc(C(=O)O)c(NC(=O)c3ccccc3)c2)cc1Cl [Example 423, 2-(Benzamido)-4-(3-chloro-4-methoxyphenyl)benzoic acid]
- inhibition at 30 µM: 98%

SMILES: O=C(Nc1cc(-c2cc(Cl)ccc2Cl)ccc1C(=O)O)c1ccccc1 [Example 425, 2-(Benzamido)-4-(2,5-dichlorophenyl)benzoic acid]
- inhibition at 30 µM: 99%

SMILES: Cc1ccc(-c2ccc(C(=O)O)c(NC(=O)c3ccccc3)c2)cc1Cl [Example 426, 2-(benzamido)-4-(3-chloro-4-methylphenyl)benzoic acid]
- inhibition at 30 µM: 98%

SMILES: O=C(Nc1cc(CCc2ccccc2)ccc1C(=O)O)c1ccc(Cl)c(Cl)c1 [Example 431, 2-(3,4-Dichlorobenzamido)-4-phenethylbenzoic acid]
- inhibition at 30 µM: 98%

SMILES: O=C(Nc1cc(CCc2ccccc2)ccc1C(=O)O)c1ccc(F)c(F)c1 [Example 433, 2-(3,4-Difluorobenzamido)-4-phenethylbenzoic acid]
- inhibition at 30 µM: 98%

SMILES: O=C(Nc1cc(Oc2ccccc2)ccc1C(=O)O)c1ccc(Cl)c(Cl)c1 [Example 442, 2-(3,4-Dichlorobenzamido)-4-phenoxybenzoic acid]
- inhibition at 30 µM: 99%

SMILES: O=C(Nc1cc(-c2ccccc2)ccc1C(=O)O)c1ccc(F)c(F)c1 [Example 450, 2-(3,4-Difluorobenzamido)-4-phenylbenzoic acid]
- inhibition at 30 µM: 98%

SMILES: O=C(CCCc1ccccc1)Nc1cc(Oc2ccccc2)ccc1C(=O)O [Example 467, 4-phenoxy-2-(4-phenylbutanamido)benzoic acid]
- inhibition at 30 µM: 90%

SMILES: O=C(Nc1cc(Oc2ccccc2)ccc1C(=O)O)c1ccc(-n2cccc2)cc1 [Example 495, 4-phenoxy-2-(4-(1H-pyrrol-1-yl)benzamido)benzoic acid]
- inhibition at 30 µM: 99%

SMILES: O=C(Nc1cc(Oc2ccccc2)ccc1C(=O)O)c1ccc(-n2cccc2)nc1 [Example 499, 4-Phenoxy-2-(6-(1H-pyrrol-1-yl)pyridine-3-carboxamido)benzoic acid]
- inhibition at 30 µM: 99%

SMILES: O=C(Nc1cc(Oc2ccccc2)ccc1C(=O)O)c1cccc(-c2ccccc2)c1 [Example 503, 2-(Biphenyl-3-carboxamido)-4-phenoxybenzoic acid]
- inhibition at 30 µM: 99%

SMILES: CC(=O)c1cccc(C(=O)Nc2cc(Oc3ccccc3)ccc2C(=O)O)c1 [Example 505, 2-(3-Acetylbenzamido)-4-phenoxybenzoic acid]
- inhibition at 30 µM: 82%

SMILES: O=C(Nc1cc(-c2ccccc2)ccc1C(=O)O)c1ccc(-n2cccc2)nc1 [Example 509, 4-Phenyl-2-(6-(1H-pyrrol-1-yl)pyridine-3-carboxamido) benzoic acid]
- inhibition at 30 µM: 77%
